# Test results taken from patent US8158811B2, “Unsaturated fatty hydroxy acid derivatives and the dermocosmetologic use thereof” (Pierre Fabre Dermo-Cosmetique, priority 2005, dated 2012).
# Tests used:
# [1] = test system: ABCG1; assay: keratinocyte differentiation, real-time RT-PCR of ABCG1 transcripts; assay type: cell-based, human; settings: NHK, 48 hours
# Procedure: (§1) Normal human keratinocytes (NHK) proliferate and differentiate in vitro, forming stratified layers which mimic the basal organisation of the skin. Extracellular calcium concentrations in excess of 0.1 mM initiate a cascade of genome and non-genome events which take the keratinocytes from a proliferative phase towards a differentiation phase. Keratinocyte differentiation can then be evaluated by studying the expression of several markers such as keratins 1 and 10, transglutaminase 1, desaturase DES2, involucrine, FATP4 and ABCG1 transporters. We therefore evaluated the effect of certain hydroxyalcene carboxylic acids in an in vitro culture model.
# (§2) Normal human keratinocytes are isolated from skin explants. They are cultured in KSFM medium (Gibco) with a low calcium content (0.1 mM) containing 25 μg/ml of BPE (bovine pituitary extract) and […] of EGF (epithelium growth factor). 24 hours after culturing, differentiation is triggered by the addition of calcium (final concentration 1.2 mM). The active ingredients are added or not at the same time as calcium at concentrations of 100 and 1 μg/ml in order to determine whether or not they have a potentialising effect on differentiation. Cells were then analysed 48 hours after the addition of calcium and these products.
# (§3) Total RNA was extracted under cold conditions from keratinocytes.
# (§4) After reverse transcription of mRNA into cDNA, PCRs were made up in 96 well plates (iCycler quantitative PCR apparatus, BioRad). Expression of transcripts of transglutaminase, desaturase (DES2), ABCG1 and FATP4 were standardized with respect to the expression of reference genes (GAPDH, UBC, HPRT).
# [2] = test system: transglutaminase 1 (TG1); assay: keratinocyte differentiation, real-time RT-PCR of transglutaminase 1 transcripts; assay type: cell-based, human; settings: NHK, 48 hours
# Procedure: as §1, §2, §3, §4
# [3] = test system: membrane lipids, fibroblast line L929; assay: TBARS test, lipid peroxidation after H2O2/Fe2+/Fe3+; assay type: cell-based, murin; settings: 0.02 ng/ml, pretreated 16 hours
# Description: In order to evaluate membrane changes, we measured lipid peroxidation by in vitro assay of complexes between the products of lipid oxidation and thiobarbituric acid. These complexes are called TBARS (thiobarbituric acid reactive substances) and give the test its name: TBARS Test.
# In order to mimic chemical oxidative stress, we treated a fibroblast line (L929) with a complex consisting of hydrogen peroxide (H2O2) and iron (Fe^2+/Fe^3+) thus reconstituting the Fenton reaction which is the source of oxygenated free radicals and particularly the hydroxyl radical (OH°) (D. A Vessey et al. 1992): H2O2+Fe^2+→OH°+OH^−+Fe^3+
# The products were evaluated on a murin fibroblast line L929. Cells were pretreated with different concentrations of the product for 16 hours and were then stimulated with the H2O2/Fe^2+/Fe^3+ complex (200 μM−1 mM) for 1 hour. • Stock solutions: 100 mg/ml ethanol, 4° C. • Final solutions: 0.02 ng/ml.
# Peroxidation of membrane lipids was analysed by measuring TBARS (Protocol ref. PLN°2, according to Morliere et al, 1991).
# […]. TBARS assays are therefore expressed in pmole/μg of protein. Proteins and TBARS are assayed in the intracellular medium.
# Using the TBARS calculation in pmole/μg protein, we calculated the protective efficacy of various products against the oxidation of lipid membranes.
# Four separate experiments were carried out. Several compounds were evaluated in the course of these experiments (the test only allows 10 molecules to be evaluated at one time). The compounds were evaluated several times and were chosen as a function of the results obtained in another test which also measured anti-radical activity (assay test for activated oxygen species).
# The model used in this experiment (Fenton reaction) triggers considerable lipid peroxidation of the L929 fibroblasts. This massive release of the hydroxyl radical OH° thus generates oxidative stress in the cells, particularly in the membranes. However, in this type of oxidative reaction, the products resulting from lipid peroxidation are internalized in the cells and TBARS are therefore assayed in the intracellular medium.
# [4] = test system: FATP4; assay: keratinocyte differentiation, real-time RT-PCR of FATP4 transcripts; assay type: cell-based, human; settings: NHK, 48 hours
# Procedure: as §1, §2, §3, §4
# [5] = test system: desaturase DES2; assay: keratinocyte differentiation, real-time RT-PCR of DES2 transcripts; assay type: cell-based, human; settings: NHK, 48 hours
# Procedure: as §1, §2, §3, §4
# [6] = test system: intracellular AOSs, fibroblast line L929; assay: in vitro assay of intracellular AOSs (H2DCF-DA probe) after H2O2/iron oxidative stress; assay type: cell-based, murin; settings: pre-incubation 3 h, L929
# Description: We set up an in vitro study model of oxidative stress induced by H2O2/iron as H2O2 generates huge amounts of intracellular AOSs as a result of a chain reaction triggered by oxidation of membrane lipids.
# This technique is based on the use of a fluorescent probe, 6-carboxy-2′,7′-dichlorodihydro fluorescein diacetate, di (acetoxymethyl ester) (H2DCF-DA) which once it penetrates into the cell is deacetylated by intracellular esterases and thus forms H2DCF. This product is oxidized by intracellular AOSs into a highly fluorescent compound: 2′,7′-dichlorofluorescein (DCF) (Suematsu M et al., 1996, Free Radicals Practical Approach, Punchard ed. P 83-99).
# The materials and methods used for in vitro assay of intracellular AOSs are given below. • a) Cell tool • Cutaneous murin fibroblast cell line L929. • b) Materials • 96 well flat based microplate. • Cytofluor II cytofluorameter: Ref. PERCEPTIVE BIOSYSTEMS. • c) Reagents • Cell culture reagents: • Dulbecco's Modified Eagle Medium as the culture medium (DMEM) • Foetal calf serum • Phosphate buffer PBS pH 7.4 • Trypsin EDTA (1X) Fluorescent probe • 6-carboxy-2′,7′-dichlorodihydrofluorescein diacetate, di(acetoxymethyl ester) (PM.675,43) Cell stimulation products • Hydrogen peroxide (H2O2) 3% Ref. GIFRER (Gifrer Barbezat Laboratory) • Ferrous ammonium sulphate (Fe^2+) • Ferric ammonium sulphate (Fe^3+) • d) Products tested:
# For the evaluation of unsaturated fatty hydroxy acid derivatives, the dilutions are prepared in freshly prepared culture medium for a concentration range of 0.02, 0.2, 2 and 20 ng/ml. • e) Protocol. Cell culturing.
# Cells from the fibroblast line L929 were cultured in 96-well flat base microplates in 100 μl of DMEM supplemented with 10% foetal calf serum. These were incubated overnight at 37° C. in a humid atmosphere at 5% CO2. The blank plate without cells was evaluated using 6 wells.
# Dilutions of the products to be tested and reference molecule were made up in culture medium without foetal calf serum then deposited in 7 wells at a rate of 100 μl per well.
# Cells were then incubated for 3 hours at 37° C. in a humid atmosphere at 5% CO2.
# Cells were rinsed in PBS 1X at a rate of 100 μl per well. They were then incubated for 30 minutes at 37° C. in a humid atmosphere at 5% CO2 with 50 μl of the H2DCF-DA probe at 5 μM.
# After 30 minutes of contact with the probe alone, cells were incubated for 30 minutes at 37° C. in a humid atmosphere at 5% CO2 with the addition of 25 μl of H2O2 at 800 μM and 25 μl of ferrous iron and ferric iron solution at 8 mM in order to obtain final concentrations of 200 μM of H2O2 and 2 mM of ferrous iron and ferric iron.
# Cells were then rinsed with PBS 1X at a rate of 100 μl per well then incubated for 30 minutes at 37° C. in a humid atmosphere at 5% CO2 with 100 μl of PBS 1X.
# This incubation for 1 h 30 minutes at 37° C. allows intracellular esterases to deacetylate the probe into H2DCF which can be oxidized by the intracellular AOSs into DCF: a fluorescent compound whose formation is proportional to the quantity of intracellular AOSs.
# The intensity of fluorescence is read on a cytofluorimeter at λexcitation=485 nm and λemission=530 nm. This reflects the amount of intracellular AOS produced.
# The ratio below makes it possible to calculate the % protection against the production of intracellular AOSs for each product concentration tested (because the intensity of fluorescence or IF reflects the release of intracellular AOSs)
# • Pre-incubation: 3 h • Number of tests=3 for all compounds. • Number of tests=18 for vit. E
# [7] = molecular target: T1, PAR-2 receptors (Homo sapiens, UniProt P55085); assay: calcium flux induced by trypsin stimulation of PAR-2 receptors in HaCaT keratinocytes (Fluo-4/AM); assay type: cell-based; settings: trypsin 10 nM
# T1 construct: PAR-2 receptors for trypsin present in human keratinocytes from the HaCaT line; endogenous in cells; host or cells: HaCaT human keratinocytes
# T1 sequence (P55085 26-397): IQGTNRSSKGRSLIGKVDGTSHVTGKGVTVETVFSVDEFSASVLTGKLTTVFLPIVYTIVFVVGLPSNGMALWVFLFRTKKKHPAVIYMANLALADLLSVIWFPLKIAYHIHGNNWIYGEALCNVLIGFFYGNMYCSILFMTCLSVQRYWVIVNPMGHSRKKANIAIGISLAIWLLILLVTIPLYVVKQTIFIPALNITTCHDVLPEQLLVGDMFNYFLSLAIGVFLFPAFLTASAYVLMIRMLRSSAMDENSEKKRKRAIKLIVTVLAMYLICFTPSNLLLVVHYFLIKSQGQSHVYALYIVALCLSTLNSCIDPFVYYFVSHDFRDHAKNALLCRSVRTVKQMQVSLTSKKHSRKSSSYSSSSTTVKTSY
# Description: We therefore considered evaluating anti-PAR-2 activity of hydroxyl acid derivatives of formula I on the influx of intracellular calcium induced after specific stimulation by PAR-2 receptors for trypsin present in human keratinocytes from the HaCaT line.
# This technique is based on the use of an esterified fluorescent probe by an AM group which facilitates its penetration by passive diffusion into the cell. The probe used is Fluo-4/AM. Only the de-esterified form bound to the calcium ion is excitable in fluorescence (at 485 nm) and emits at 535 nm.
# In vitro, at the cell level, specific stimulation of the PAR-2 receptors by trypsin leads to mobilisation of intra and extracellular calcium detected with the aid of the fluorescent probe.
# [8] = test system: Interleukin 8; assay: release of Interleukin 8 by keratinocytes NHK stimulated with PMA + calcium ionophore A23187 (ELISA); assay type: cell-based, human; settings: 3 μg/ml, keratinocytes, PMA + A23187 6 hours
# Procedure: In this study, carried out using 96 well plates, we evaluated the activity of hydroxyl alkine acids on the production of Interleukin 8 produced in the keratinocytes by phorbol ester PMA and calcium ionophore A23187.
# A suspension of keratinocytes in supplemented KSFM was divided between 96 well plates (3.10^4 cells/wells) and incubated for 16 hours at 37° C. under an atmosphere of 5% CO2. The keratinocytes were then rinsed with PBS in order to eliminate non adhering cells then exposed to the products to be tested included in non supplemented KSFM (which could interfere with the assay).
# The concentration tested in culture was 3 μg/ml. This was retained after a preliminary test to evaluate cytotoxicity (neutral red) and is not cytotoxic.
# 3 wells were used for each treatment. Cells were preincubated for 60 minutes with the products to be tested then stimulated, in parallel to negative controls without stimulant: Phorbol Myristate Acetate (PMA) 1 μm+Calcium ionophore (A23187) 0.1 μm.
# Incubation for 6 hours at 37° C. in a humid air atmosphere containing 5% CO2.
# The culture medium for each of the wells was recovered, centrifuged at 3000 rpm and stored at −80° C.
# Cytokine assay: IL8 was assayed using the ELISA kit immunoenzyme method (immunotech).
# The results are given as percentage activity/stimulated control.
# The compounds according to the invention were evaluated in terms of anti-inflammatory activity on the release of Interleukin 8 by human keratinocytes NHK stimulated by phorbol ester PMA+calcium ionophore A23187.
# [9] = Mus musculus, 0.2 ng/ml, read-out: Percentage inhibition of the intracellular production of AOS
SMILES,Induction Factor vs Control (CaCl2 1.2 mM) ABCG1 ([1]; 1 μg/ml),Induction Factor vs Control (CaCl2 1.2 mM) ABCG1 ([1]; 100 μg/ml),Induction Factor vs Control (CaCl2 1.2 mM) TG1 ([2]; 1 μg/ml),Induction Factor vs Control (CaCl2 1.2 mM) TG1 ([2]; 100 μg/ml),"% membrane lipid protection, Mean [3] [%]",Induction Factor vs Control (CaCl2 1.2 mM) FATP4 ([4]; 1 μg/ml),Induction Factor vs Control (CaCl2 1.2 mM) FATP4 ([4]; 100 μg/ml),Induction Factor vs Control (CaCl2 1.2 mM) DES2 ([5]; 1 μg/ml),Induction Factor vs Control (CaCl2 1.2 mM) DES2 ([5]; 100 μg/ml),"inhibition at 0.0002 µg/mL [6, 9] [%]",other results
"O=C(O)/C=C/CCCCCCCO [n=6, R=H, Rn=H, R1=H, DHA]",1.9,6.6,1.1,12.3,52.91,1.2,2.5,1.7,11.5,33,
"O=C(O)/C=C/CCCCCCO [n=5, R=H, Rn=H, R1=H, 9-hydroxy-nona-2t-enoic acid]",2.7,,1.5,,,1.0,,1.8,,,Percentage inhibition of the intracellular production of AOS ([6]; 0.02 ng/ml): 56%; Percentage inhibition of the intracellular production of AOS ([6]; 0.2 ng/ml): 47%; Percentage inhibition of the intracellular production of AOS ([6]; 2 ng/ml): 46%; Percentage inhibition of the intracellular production of AOS ([6]; 20 ng/ml): 36%
"O=C(O)C(F)=CCCCCCCCO [n=6, R=H, Rn=H, R1=F, 10-hydroxy-dec-2-fluoro-2 enoic acid]",1.3,6.3,1.2,7.8,40.65,1.0,1.9,1.3,10.3,4,"inhibition at 20 pg/mL ([6]; Mus musculus, 0.02 ng/ml, read-out: Percentage inhibition of the intracellular production of AOS): 15%; inhibition at 0.002 µg/mL ([6]; Mus musculus, 2 ng/ml, read-out: Percentage inhibition of the intracellular production of AOS): 5%; inhibition at 0.02 µg/mL ([6]; Mus musculus, 20 ng/ml, read-out: Percentage inhibition of the intracellular production of AOS): -9%"
"O=C(O)/C=C/CCCCCCCCCCCCCCCO [n=14, R=H, Rn=H, R1=H, 18-hydroxy-octadec-2t-enoic acid]",,,,,,,,,,,% inhibition ([7]; 10 μg/ml): −10%; % stimulation ([7]; 10 μg/ml): 14.68%; % inhibition ([7]; 30 μg/ml): 8%; % stimulation ([7]; 30 μg/ml): 12.90%; % inhibition ([7]; 100 μg/ml): 23%; % stimulation ([7]; 100 μg/ml): 11.37%; % inhibition of IL-8 release [8]: Non-active
